Results on ten compounds are retold here after PubChem BioAssay (NCI).

Among the test systems are HL-60(TB) leukemia; U251 CNS; SF-295 CNS; MALME-3M melanoma; KM12 colon; CAKI-1 renal; CCRF-CEM leukemia; NCI-H522 lung; RXF 393 renal; HCC-2998 colon.
Assay in all cases: DTP human tumour cell line panel, 48 h

Structures are written as SMILES.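 A five-concentration, 48-hour dose response in 96-well plates underlies each endpoint, interpolated linearly between surrounding concentrations. Abbreviation: GI50, concentration required for 50% inhibition of growth. TGI marks complete inhibition of growth.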 Where only a bound is given, the exact number is not on record here.

As for `CCCCCCCCC(=O)CCCCCCCCC(=O)O`, the TGI is 16.2 µM in the assay on HL-60(TB) leukemia; more than 100 µM with U251 CNS; more than 100 µM with SF-295 CNS; more than 100 µM with MALME-3M melanoma; 32 µM in the assay with KM12 colon; more than 100 µM with CAKI-1 renal. Moreover, the TGI is more than 100 µM with CCRF-CEM leukemia, 85 µM with NCI-H522 lung and 67.1 µM in the assay with RXF 393 renal.
On to `CC12Oc3ccc4ccccc4c3C1c1c(ccc3ccccc13)O2` (centres undefined), for which the TGI in the assay with U251 CNS, in the assay on SF-295 CNS, in the assay on MALME-3M melanoma, in the assay on KM12 colon, in the assay on CAKI-1 renal and in the assay with CCRF-CEM leukemia was more than 100 µM in each case. Further, the TGI in the assay with NCI-H522 lung and in the assay on RXF 393 renal was more than 100 µM each time.
On to `Cc1c(NC(=O)CCCl)c(=O)oc2c(C)c3occc(=O)c3cc12`, for which the TGI in the assay on HCC-2998 colon, with HL-60(TB) leukemia, with U251 CNS, with SF-295 CNS, in the assay with MALME-3M melanoma and in the assay on KM12 colon was more than 100 µM throughout. In addition, the TGI with CAKI-1 renal, in the assay on CCRF-CEM leukemia and in the assay with RXF 393 renal was more than 100 µM in each case.
As for `O=[N+]([O-])c1ccc(Oc2cccnc2)c([N+](=O)[O-])c1`, the GI50 was 6.53 µM in the assay with HCC-2998 colon; 3.12 µM in the assay with U251 CNS; 18.6 µM in the assay with SF-295 CNS; 2.83 µM in the assay with MALME-3M melanoma; 2.69 µM in the assay on KM12 colon; 2.26 µM in the assay on CAKI-1 renal. Further, the GI50 was 3.22 µM in the assay on CCRF-CEM leukemia, 3.02 µM in the assay with NCI-H522 lung and 3.8 µM in the assay with RXF 393 renal. The concentration for total growth inhibition (TGI) in the assay with HCC-2998 colon is 41.7 µM; in the assay with U251 CNS, 12.7 µM; in the assay with SF-295 CNS, more than 100 µM; in the assay with MALME-3M melanoma, 17.6 µM; with KM12 colon, 6.68 µM; in the assay on CAKI-1 renal it was 22.9 µM. Further, the figures for the TGI in the assay on CCRF-CEM leukemia, in the assay with NCI-H522 lung and with RXF 393 renal were 24.8 µM, 9.55 µM and 14.7 µM, respectively.
`C[CH2][Sn]1([CH2]C)[O]C2C(O)OC(CO)C(O)C2[O]1` (centres undefined): the GI50 was 16.5 µM in the assay with HL-60(TB) leukemia; 17.9 µM in the assay on U251 CNS; more than 100 µM with SF-295 CNS; 14 µM in the assay with MALME-3M melanoma; 90.4 µM with KM12 colon; 31.1 µM in the assay with CAKI-1 renal. Besides, the GI50 with NCI-H522 lung was 3.95 µM; in the assay with RXF 393 renal, 27.6 µM. For the same compound, the TGI was 39.1 µM with HL-60(TB) leukemia; 36.9 µM in the assay on U251 CNS; more than 100 µM with SF-295 CNS; 30.2 µM in the assay with MALME-3M melanoma; more than 100 µM with KM12 colon; more than 100 µM in the assay with CAKI-1 renal. The values for the TGI in the assay with NCI-H522 lung and in the assay on RXF 393 renal were 22.2 µM and more than 100 µM, respectively.
On to `CCOC(=O)CC(=O)N(c1ccc(OC)cc1)C(C(=O)OC)c1ccccc1` (centres undefined), for which the total growth inhibition concentration (TGI) in the assay on SF-295 CNS, with KM12 colon, in the assay on CAKI-1 renal, in the assay with CCRF-CEM leukemia and in the assay on NCI-H522 lung was more than 100 µM each time.
For the compound `CCC[CH2][Sn]([CH2]CCC)([O]C(=O)c1cc(OC)c(OC)c(OC)c1)[O]C(=O)c1cc(OC)c(OC)c(OC)c1`, the GI50 was 1.28 µM in the assay on U251 CNS; 1.6 µM in the assay with SF-295 CNS; 0.946 µM with MALME-3M melanoma; 1.45 µM with KM12 colon; 0.3 µM in the assay on CAKI-1 renal; 0.25 µM in the assay with CCRF-CEM leukemia. The GI50 was 0.191 µM in the assay on NCI-H522 lung and 0.297 µM with RXF 393 renal. Besides, the TGI in the assay with U251 CNS amounted to 2.55 µM; with SF-295 CNS it was 3.19 µM; with MALME-3M melanoma it was 2.17 µM; with KM12 colon, 3.01 µM; with CAKI-1 renal, 1.31 µM; in the assay on CCRF-CEM leukemia, 0.862 µM. Besides, the TGI in the assay on NCI-H522 lung came to 0.348 µM; with RXF 393 renal, 1.12 µM.
For the compound `Oc1c(Cl)cc(C(c2cc(Cl)c(O)c(Cl)c2)C(c2cc(Cl)c(O)c(Cl)c2)c2cc(Cl)c(O)c(Cl)c2)cc1Cl`, the GI50 in the assay on HCC-2998 colon is 3.79 µM; with U251 CNS, 3.03 µM; in the assay on SF-295 CNS, 3.51 µM; in the assay with MALME-3M melanoma it was 5.88 µM; with KM12 colon, 2.85 µM; in the assay on CAKI-1 renal, 3.45 µM. In addition, the GI50 is 6.36 µM in the assay with NCI-H522 lung and 1.34 µM with RXF 393 renal. In addition, the concentration for total growth inhibition (TGI) in the assay on HCC-2998 colon stood at 14.3 µM; with U251 CNS, 10.7 µM; in the assay with SF-295 CNS, 16.3 µM; with MALME-3M melanoma, 30.4 µM; in the assay with KM12 colon, 11.8 µM; in the assay with CAKI-1 renal it was 13.6 µM. In addition, the results for the total growth inhibition concentration (TGI) in the assay with NCI-H522 lung and in the assay on RXF 393 renal were 47.5 µM and 4.11 µM, respectively.
Regarding `O=[n+]1cnn([O-])c2ccccc21`, the concentration for total growth inhibition (TGI) with HCC-2998 colon is more than 100 µM; in the assay on U251 CNS, more than 100 µM; in the assay with SF-295 CNS it was more than 100 µM; in the assay with MALME-3M melanoma, 47.6 µM; with KM12 colon it was 40.4 µM; in the assay with CAKI-1 renal, 55.1 µM. The TGI with CCRF-CEM leukemia is more than 100 µM; in the assay on NCI-H522 lung it was 45.2 µM; in the assay with RXF 393 renal, 59.6 µM.
On to `Nc1ccn(C2OC(CO[P+](=O)OC3C(CO[P+](=O)OC4C(CO[P+](=O)OC5C(CO[P+](=O)OC6C(CO[P+](=O)OC7C(CO[P+](=O)OC8C(CO[P+](=O)OC9C(CO[P+](=O)OC%10C(CO[P+](=O)OC%11C(CO)OC(n%12ccc(N)nc%12=O)C%11(F)F)OC(n%11ccc(N)nc%11=O)C%10(F)F)OC(n%10ccc(N)nc%10=O)C9(F)F)OC(n9ccc(N)nc9=O)C8(F)F)OC(n8ccc(N)nc8=O)C7(F)F)OC(n7ccc(N)nc7=O)C6(F)F)OC(n6ccc(N)nc6=O)C5(F)F)OC(n5ccc(N)nc5=O)C4(F)F)OC(n4ccc(N)nc4=O)C3(F)F)C(O)C2(F)F)c(=O)n1` (centres undefined), for which the concentration for 50% growth inhibition (GI50) is 0.339 µM in the assay with HCC-2998 colon; 50.9 µM with MALME-3M melanoma; 2.03 µM in the assay with KM12 colon; 0.224 µM in the assay on NCI-H522 lung; 0.0618 µM in the assay with RXF 393 renal. In addition, the TGI is more than 100 µM with HCC-2998 colon; 0.18 µM with HL-60(TB) leukemia; more than 100 µM in the assay on U251 CNS; more than 100 µM with SF-295 CNS; more than 100 µM in the assay with MALME-3M melanoma; more than 100 µM in the assay on KM12 colon. The concentration for total growth inhibition (TGI) with NCI-H522 lung and with RXF 393 renal was more than 100 µM throughout.

Usually TGI stands for the concentration at which net growth stops. What is called GI50 is the concentration that inhibits growth by half.
